Laboratory results as given in the supplement of paper PMC12592484.

Legend:
Experiment in all cases: drug sensitivity score (DSS2, normalised partial AUC of dose-response, 72 h CellTiter-Glo viability) (DSS (dimensionless)); higher = more sensitive (stronger growth inhibition / cytotoxicity); extreme values may be limits of the assay
22Rv1 = tested on: 22Rv1
Summary of the method: (§1)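 Cells were added to 384-well plates already holding compounds at five doses over a 10,000-fold range: low-passage primary prostate cancer-associated fibroblasts, PF179T, WPMY-1, LNCaP and 22Rv1. Viability was measured 72 h later by CellTiter-Glo 2.0 luminescence and scaled to vehicle and positive-control wells. The drug sensitivity score, computed in BREEZE, is a partial area under the fitted logistic dose–response curve divided by the log of its upper asymptote, with higher scores meaning greater sensitivity.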

LNCAP = tested on: LNCAP
Summary of the method: as §1

CAF#7 = tested on: CAF#7 (primary prostate cancer-associated fibroblasts of myCAF-like type)
Summary of the method: as §1

PF179T = tested on: PF179T
Summary of the method: as §1

CAF#1 = tested on: CAF#1 (primary prostate cancer-associated fibroblasts of myCAF-like type)
Summary of the method: as §1

CAF#2 = tested on: CAF#2 (primary prostate cancer-associated fibroblasts of iCAF-like type)
Summary of the method: as §1

CAF#5 = tested on: CAF#5 (primary prostate cancer-associated fibroblasts of myCAF-like type)
Summary of the method: as §1

CAF#4 = tested on: CAF#4 (primary prostate cancer-associated fibroblasts of iCAF-like type)
Summary of the method: as §1

WPMY-1 = tested on: WPMY-1
Summary of the method: as §1

CAF#6 = tested on: CAF#6 (primary prostate cancer-associated fibroblasts of iCAF-like type)
Summary of the method: as §1

CAF#3 = tested on: CAF#3 (primary prostate cancer-associated fibroblasts of myCAF-like type)
Summary of the method: as §1

Compound | drug sensitivity score (22Rv1) | drug sensitivity score (LNCAP) | drug sensitivity score (CAF#7) | drug sensitivity score (PF179T) | drug sensitivity score (CAF#1) | drug sensitivity score (CAF#2) | drug sensitivity score (CAF#5) | drug sensitivity score (CAF#4) | drug sensitivity score (WPMY-1) | drug sensitivity score (CAF#6) | drug sensitivity score (CAF#3)
CO[C@H]1C[C@@H]2CC[C@@H](C)[C@@](O)(O2)C(=O)C(=O)N2CCCC[C@H]2C(=O)O[C@H]([C@H](C)C[C@@H]2CC[C@@H](O)[C@H](OC)C2)CC(=O)[C@H](C)/C=C(\C)[C@@H](O)[C@@H](OC)C(=O)[C@H](C)C[C@H](C)/C=C/C=C/C=C/1C [Sirolimus] (tested concentration range 0-100 nM) | 9.3 | 2.5 | 3.7 | 5.6 | 6.5 | 6.8 | 7.4 | 4.9 | 4 | 3.4 | 2.2
O=C(NCc1ccncc1)C12CC3CC(C1)CC(c1ccc(Cl)cc1)(C3)C2 [Opaganib] (tested concentration range 5-50000 nM) | 5.9 | 8.6 | 0.4 | 3.8 | 2.7 | 4.4 | 0.7 | 4.1 | 6.8 | 0.7 | 1.2
COc1c(OCCCN2CCOCC2)ccc2c1N=C(NC(=O)c1cnc(N)nc1)N1CCN=C21 [Copanlisib] (tested concentration range 0.1-1000 nM) | 14.1 | 4.7 | 7.5 | 8.8 | 7.7 | 9.8 | 9.9 | 8.7 | 7.7 | 7 | 6
CNC(=O)c1ccc(-c2cnc3ncc(Cc4ccc5ncccc5c4)n3n2)cc1F [Capmatinib] (tested concentration range 0.1-1000 nM) | 0 | 0 | 0 | 0.4 | 0 | 3.1 | 0 | 0 | 0.1 | 0 | 0
COC(=O)N[C@@H](C)CNc1nccc(-c2cn(C(C)C)nc2-c2cc(Cl)cc(NS(C)(=O)=O)c2F)n1 [Encorafenib] (tested concentration range 0.1-1000 nM) | 2.3 | 2.3 | 1.3 | 0.6 | 0.6 | 0 | 0.7 | 0.5 | 0 | 0.9 | 2
NC(=O)N1CCC(CC(=O)N2CCC([C@H]3c4ncc(Br)cc4CCc4cc(Cl)cc(Br)c43)CC2)CC1 [Lonafarnib] (tested concentration range 5-50000 nM) | 18.6 | 16.1 | 7.7 | 3.1 | 8.2 | 9.7 | 7.6 | 9 | 16.6 | 8.5 | 9.2
C[C@@]1(C(=O)Nc2ccc(F)nc2)CCCN1c1nc(Nc2cc(C3CC3)n[nH]2)c2cccn2n1 (tested concentration range 1-10000 nM) | 12.4 | 6.4 | 10.5 | 9.4 | 10.4 | 12.2 | 10.7 | 7.9 | 15.6 | 8.7 | 9
CC1(C)CNc2cc(NC(=O)c3cccnc3NCc3ccncc3)ccc21 [Motesanib] (tested concentration range 1-10000 nM) | 0 | 5.1 | 3.7 | 0 | 1.4 | 2.7 | 2.4 | 0.7 | 0 | 2.1 | 5.9
CCN(CC)CCN(Cc1ccc(-c2ccc(C(F)(F)F)cc2)cc1)C(=O)Cn1c(SCc2ccc(F)cc2)nc(=O)c2c1CCC2 [Darapladib] (tested concentration range 0.1-1000 nM) | 3.7 | 0 | 0 | 0 | 0 | 0 | 0.7 | 1 | 1.3 | 0 | 0.1
O=C(/C=C/c1cccnc1)NCCCCC1CCN(C(=O)c2ccccc2)CC1 [Daporinad] (tested concentration range 0.1-1000 nM) | 25.6 | 26.9 | 17.5 | 21.3 | 13.9 | 25.8 | 13.9 | 23.6 | 29.4 | 16.5 | 12.8
Nc1cc(F)ccc1NC(=O)/C=C/c1cnn(C/C=C/c2ccccc2)c1 [RGFP966] (tested concentration range 1-10000 nM) | 1.8 | 8.3 | 2.7 | 3.8 | 3.1 | 3.2 | 3.1 | 3.3 | 2.2 | 2.1 | 2.6
Cc1ccc(C(=O)Nc2cccc(C(F)(F)F)c2)cc1Nc1nc(-c2cccnc2)nc2c1cnn2C [NVP-BHG712] (tested concentration range 1-10000 nM) | 5 | 9.6 | 0 | 0.6 | 0 | 3.2 | 1 | 1.6 | 9 | 0 | 0
N#CCNC(=O)c1ccc(-c2ccnc(Nc3ccc(N4CCOCC4)cc3)n2)cc1 [Momelotinib] (tested concentration range 1-10000 nM) | 0.9 | 5 | 3.1 | 2.3 | 3.9 | 4.6 | 4.1 | 2.8 | 6.1 | 2.8 | 4.4
CN[C@@H](C)C(=O)N[C@H](C(=O)N1CCC[C@H]1c1nc(C(=O)c2ccc(F)cc2)cs1)C1CCCCC1 [NVP-LCL161] (tested concentration range 2.5-25000 nM) | 3.4 | 3.7 | 2 | 0 | 0 | 0.4 | 0 | 0.3 | 3 | 1.9 | 1.2
CNC(=O)c1ccc(N2C(=S)N(c3cnc(C#N)c(C(F)(F)F)c3)C(=O)C23CCC3)cc1F [Apalutamide] (tested concentration range 1-10000 nM) | 0 | 2.7 | 0 | 0.9 | 0.2 | 0.8 | 0.1 | 0 | 0 | 0.2 | 0.8
Cc1cc(Nc2cc(N3CCN(C)CC3)nc(Sc3ccc(NC(=O)C4CC4)cc3)n2)n[nH]1 [Tozasertib] (tested concentration range 1-10000 nM) | 5.5 | 7 | 4.7 | 8.2 | 3.2 | 8.4 | 3.5 | 3.2 | 14.5 | 3 | 4.9
O=C1CCc2c(Oc3ccc4c(c3)[C@@H]3[C@H](O4)[C@H]3c3nc4cc(C(F)(F)F)ccc4[nH]3)ccnc2N1 [Lifirafenib] (tested concentration range 1-10000 nM) | 6.3 | 5.9 | 0.7 | 1.3 | 3.4 | 4.2 | 2.2 | 2.4 | 3.7 | 0.5 | 0
Cc1nc(NC(=O)N2CCC[C@H]2C(N)=O)sc1-c1ccnc(C(C)(C)C(F)(F)F)c1 [Alpelisib] (tested concentration range 0.2-2500 nM) | 4.8 | 1.1 | 3.4 | 0 | 2.9 | 2.5 | 3.1 | 2.6 | 1.3 | 3 | 2.1
CCC/C=C/C=C/C(=O)O[C@H]1/C(=C/C(=O)OC)C[C@H]2C[C@H]([C@@H](C)O)OC(=O)C[C@H](O)C[C@@H]3C[C@H](OC(C)=O)C(C)(C)[C@](O)(C[C@@H]4C/C(=C/C(=O)OC)C[C@H](/C=C/C(C)(C)[C@]1(O)O2)O4)O3 [Bryostatin 1] (tested concentration range 0-100 nM) | 0 | 0.1 | 4 | 0 | 4.2 | 3.4 | 3 | 0.5 | 1.3 | 2.6 | 0.6
CCNC(=O)C[C@@H]1N=C(c2ccc(Cl)cc2)c2cc(OC)ccc2-n2c(C)nnc21 [Molibresib] (tested concentration range 1-10000 nM) | 8.9 | 12.3 | 2.7 | 2.9 | 4.6 | 5.1 | 2.9 | 3.8 | 6.5 | 2.9 | 6.6
N#Cc1ccc(C(c2ccc(C#N)cc2)n2cncn2)cc1 [Letrozole] (tested concentration range 1-10000 nM) | 0 | 0 | 0 | 0 | 0 | 0 | 0 | 0 | 0 | 0 | 0
NS(=O)(=O)NCCNc1nonc1/C(=N/O)Nc1ccc(F)c(Br)c1 [Epacadostat] (tested concentration range 1-10000 nM) | 0 | 0 | 1.1 | 0.5 | 0 | 1.1 | 0.9 | 2 | 0.2 | 0 | 0
